Laboratory results as given in patent US8410178B2, “CIS 3,4-dihydroxy-2-(3-methylbutanoyl)-5-(3-methylbutyl)-4-(4-methylpentanoyl)cyclopent-2-en-1-derivatives, substantially enantiomerically pure compositions and methods” (KinDex Therapeutics, LLC, priority 2010, dated 2013).
Like-named read-outs stand apart in the source and are kept apart here. Values belong to the molecule of their own block, whether it stands above or below them.

How the values were obtained:
[1] = target: T1, GPR120 (Homo sapiens, UniProt Q5NUL3); assay: GPR120 activity, intracellular calcium response in CHO-K1/GPR120/Gα15 cells; format: cell-based
T1 sequence (Q5NUL3 1-361): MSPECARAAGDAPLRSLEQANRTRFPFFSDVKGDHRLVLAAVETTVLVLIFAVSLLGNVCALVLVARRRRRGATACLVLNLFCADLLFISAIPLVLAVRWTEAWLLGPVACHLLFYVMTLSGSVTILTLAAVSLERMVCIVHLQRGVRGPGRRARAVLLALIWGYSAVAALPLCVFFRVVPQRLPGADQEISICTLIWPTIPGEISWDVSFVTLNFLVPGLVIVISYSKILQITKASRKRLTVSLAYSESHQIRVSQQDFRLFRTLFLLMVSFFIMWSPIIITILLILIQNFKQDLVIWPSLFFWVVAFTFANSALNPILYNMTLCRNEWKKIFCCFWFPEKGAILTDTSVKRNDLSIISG
Procedure: GPR120 activity was measured by intracellular calcium response. CHO-K1/GPR120/Gα15 cells were regularly passaged to maintain optimal cell health and cultured in Ham's F12 supplemented with 10% fetal bovine serum, 200 μg/mL zeocin, and 100 μg/mL hygromycin. Cells were seeded in a 384-well black-wall, clear-bottom plate at a density of 20,000 cell per well in 20 μL of growth medium 18 hours prior to the start of the experiment, and maintained at 37° C./5% CO2. Cells were loaded with calcium-4, and baseline fluorescence readings were obtained from 1 second to 20 seconds using a fluorescent imaging plate reader (FLIPR). At 20 seconds, (+)-KDT501 (5× final concentration) was added to the reading plate, and the fluorescence signal was monitored for 100 seconds (21 seconds to 120 seconds). α-linolenic acid (LA), eicosapentaenoic acid (EPA), and docosahexaenoic acid (DHA) were used as controls. Data acquisition and analysis was performed using ScreenWorks (version 3.1) and exported to Excel. The average fluorescence value for the first 20 seconds was calculated as the baseline reading. The relative fluorescent unit (ΔRFU) intensity values were calculated with the maximal fluorescent units (21 s to 120 s), subtracting the baseline reading. Data analysis wizard written by GenScript was used to analyze EC50. Dose response curves of antagonist were fitted using the GraphPad Prism 4 four parameter logistic equation Y=Bottom+(Top−Bottom)/(1+10^((LogIC50−X)*HillSlope)), where X is the logarithm of concentration and Y is response.

[2] = target: T2, PPARγ (Homo sapiens, UniProt P37231); assay: PPARγ luciferase reporter assay; format: cell-based; details: reporter cells, 20 hours
T2 sequence (P37231 1-505): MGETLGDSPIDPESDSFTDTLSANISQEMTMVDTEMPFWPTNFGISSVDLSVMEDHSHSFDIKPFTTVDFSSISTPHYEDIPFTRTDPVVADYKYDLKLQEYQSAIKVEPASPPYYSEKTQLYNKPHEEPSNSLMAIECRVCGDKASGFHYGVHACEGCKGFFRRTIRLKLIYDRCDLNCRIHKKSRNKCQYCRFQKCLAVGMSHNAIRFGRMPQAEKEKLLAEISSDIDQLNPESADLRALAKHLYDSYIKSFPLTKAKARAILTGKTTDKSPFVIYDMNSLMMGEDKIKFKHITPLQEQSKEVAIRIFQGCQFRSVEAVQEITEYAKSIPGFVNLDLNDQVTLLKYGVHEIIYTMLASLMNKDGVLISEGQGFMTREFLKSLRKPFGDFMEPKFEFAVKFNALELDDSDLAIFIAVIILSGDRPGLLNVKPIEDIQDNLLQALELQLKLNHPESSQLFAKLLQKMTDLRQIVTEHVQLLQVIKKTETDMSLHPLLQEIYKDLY
Procedure: The functional effect of (+)-KDT501 on PPARα, PPARδ, and PPARγ activity was evaluated using a PPAR reporter assay (INDIGO Biosciences, PA). This assay utilizes non-human mammalian cells engineered to provide constitutive high level expression of PPARα, PPARδ, or PPARγ and containing a luciferase report gene specific to the appropriate PPAR. Following activation by agonist binding, PPAR induces expression of the luciferase reporter gene. Luciferase activity therefore provides a surrogate for measuring PPAR activity in agonist-treated cells.
Reporter cells were plated on a 96-well plate at 100 μL per well, and 100 μL of (+)-KDT501 at various final concentrations (25, 12.5, 6.25, 3.125, 1.56 and 0.78 μM) was added to each well. […] 0.1% DMSO was also used as a negative control for each assay. Plates are incubated for 20 hours in a humidified incubator at 37° C. and 5% CO2. After incubation, cell medium was discarded and the cells were treated with 100 μL of luciferase detection reagent for 15 minutes. Plates were analyzed using a luminometer (Victor2, Perkin Elmer). Average relative light unit (RLU) and standard deviation were analyzed using GraphPad Prism.
The PPAR activity assays were repeated as described above using both (+)-KDT501(12.5, 6.25, 3.125, 1.56, and 0.78 μM) and (−)-KDT501 (25, 12.5, 6.25, 3.125, 1.56, and 0.78 μM).

[3] = test system: Zucker diabetic fatty (ZDF) rats; assay: Glucose and triglyceride levels in a rat diabetes model; format: in vivo; details: 200 mg/kg orally twice a day
Procedure: 64 six-week-old male Zucker diabetic fatty (ZDF) rats with glucose levels of 175-300 mg/dL were randomized and divided into eight dosing groups: 1) vehicle only (0.5% methylcellulose (w/v), 0.2% Tween 80 (w/v); negative control), 2) (+)-KDT501 25 mg/kg, 3) (+)-KDT501 50 mg/kg, 4) (+)-KDT501 100 mg/kg, 5) (+)-KDT501 200 mg/kg, 6) metformin 200 mg/kg (positive control), 7) metformin 200 mg/kg and (+)-KDT501 100 mg/kg, and 8) pioglitazone 30 mg/kg (positive control). Drugs were administered orally twice a day for 33 days.
Animals were weighed at randomization and once per week thereafter, with administration dosages calculated based on the most recent body weight measurements. Blood samples were collected by tail bleed three days prior to randomization, at randomization, and at days 15 and 29 after the start of treatment. These blood samples were used to perform whole blood glucose evaluations using a glucometer, as well as to measure blood triglyceride levels. Body composition was tested by qNMR on days 2 and 29 after the start of treatment. An oral glucose tolerance test (OGTT) was performed on days 31 and 32 after the start of treatment. Rats underwent an overnight fast prior to OGTT, and tail bleeds for glucose and insulin were performed pre-glucose bolus and at 15, 30, 60, 90, and 120 minutes post-glucose bolus. The glucose bolus was 2 g dextrose/kg of body weight. On day 33, a cardiac puncture was performed for PK analysis.

[4] = test system: diet induced obese (DIO) mice; assay: Glucose, insulin, HbA1C and fat mass in high fat diet-induced obesity (DIO) mouse model; format: in vivo; details: 200 mg/kg orally twice a day
Procedure: 14 week-old male mice were randomized and divided into seven dosing groups with 16 animals in each group: 1) vehicle only (0.5% methylcellulose (w/v), 0.2% Tween 80 (w/v); negative control), 2) (+)-KDT501 25 mg/kg, 3) (+)-KDT501 50 mg/kg, 4) (+)-KDT501 100 mg/kg, 5) (+)-KDT501 200 mg/kg, 6) metformin 200 mg/kg (positive control), and 7) pioglitazone 30 mg/kg (positive control). Drugs were administered orally twice a day for 30 days.
Animals were weighed at randomization and once per week thereafter, with administration dosages calculated based on the most recent body weight measurements. The mice were maintained on a high fat diet (40% Kcal) (TD95217; prepared by Covance Laboratories, Greenfield, Ind.). Body composition was tested by qNMR on days −5 and 28 after the start of treatment. […]. An oral glucose tolerance test (OGTT) was performed on day 30 after the start of treatment. Mice underwent an overnight fast prior to OGTT, and tail bleeds for glucose and insulin were performed pre-glucose bolus and at 15, 30, 60, 90, and 120 minutes post-glucose bolus. The glucose bolus was 2 g dextrose/kg of body weight. OGTT results were evaluated by area under the curve (AUC) measurements and Dunnett's test.

[5] = CHO-K1/GPR120/Gα15 cells, calcium response, read-out: GPR120 agonistic activity EC50

EC50 [1, 5]: 116 µM
Compound: CC/C=C\C/C=C\C/C=C\C/C=C\C/C=C\CCCC(=O)O [EPA, eicosapentaenoic acid]

PPARγ activity [2]: increased PPARγ activity
Compound: CCCc1nc2c(C)cc(-c3nc4ccccc4n3C)cc2n1Cc1ccc(-c2ccccc2C(=O)O)cc1 [Telmisartan, telmisartan, reference compound]

Further lines, the molecule ahead of its results:

Compound: CC/C=C\C/C=C\C/C=C\C/C=C\C/C=C\C/C=C\CCC(=O)O [DHA, docosahexaenoic acid]
EC50 [1, 5]: 35.3 µM

Compound: CN(C)C(=N)N=C(N)N [metformin, reference compound]
whole blood glucose levels [3]: slight increase | triglyceride levels ([3]; days 15 and 29): increase | HbA1C ([4]; day 29, versus vehicle-only): significant difference | blood glucose levels from the OGTT ([4]; day 30): significant decrease | insulin levels from the OGTT ([4]; day 30): significant decrease | fat mass ([4]; qNMR day 28): reduction in fat mass

Compound: CC/C=C\C/C=C\C/C=C\CCCCCCCC(=O)O [α-LA, α-linolenic acid]
EC50 [1]: 36.1 µM
